Tests used:
[1] = Cmax in Sprague-Dawley rat at 1 mg/kg, iv measured upto 24 hrs by LC-MS/MS analysis; type: ADME, organism-based; design: dose 1 mg/kg, time < 24 hrs, route iv; details: in vivo
[2] = Kinetic solubility of compound in FaSSIF upto 500 uM measured after 16 hrs under shaking condition by UV-visible method; type: physicochemical; details: read-out: Kinetic_solubility
[3] = Chemical stability of the compound in FeSSIF measured after 0.5 to 4 hrs; type: physicochemical; details: simulated gi fluid; time 0.5-4 hrs
[4] = Efflux ratio of apparent permeability across basolateral to apical over apical to basolateral membrane in human Caco-2 cells at 5 uM measured after 120 mins by LC-MS/MS analysis; type: ADME, cell-based
[5] = Tmax in Sprague-Dawley rat at 100 mg/kg; type: ADME, organism-based; details: in vivo
[6] = AUC in mouse at 50 mg/kg per day, po via gavage administered for 13 weeks; type: ADME, organism-based; design: dose 50 mg/kg, time 13 weeks, route po; details: in vivo
[7] = target: hERG (Homo sapiens, UniProt Q12809); experiment: Inhibition of hERG at 10 uM relative to control; type: toxicity
hERG, sequence (Q12809 whole entry): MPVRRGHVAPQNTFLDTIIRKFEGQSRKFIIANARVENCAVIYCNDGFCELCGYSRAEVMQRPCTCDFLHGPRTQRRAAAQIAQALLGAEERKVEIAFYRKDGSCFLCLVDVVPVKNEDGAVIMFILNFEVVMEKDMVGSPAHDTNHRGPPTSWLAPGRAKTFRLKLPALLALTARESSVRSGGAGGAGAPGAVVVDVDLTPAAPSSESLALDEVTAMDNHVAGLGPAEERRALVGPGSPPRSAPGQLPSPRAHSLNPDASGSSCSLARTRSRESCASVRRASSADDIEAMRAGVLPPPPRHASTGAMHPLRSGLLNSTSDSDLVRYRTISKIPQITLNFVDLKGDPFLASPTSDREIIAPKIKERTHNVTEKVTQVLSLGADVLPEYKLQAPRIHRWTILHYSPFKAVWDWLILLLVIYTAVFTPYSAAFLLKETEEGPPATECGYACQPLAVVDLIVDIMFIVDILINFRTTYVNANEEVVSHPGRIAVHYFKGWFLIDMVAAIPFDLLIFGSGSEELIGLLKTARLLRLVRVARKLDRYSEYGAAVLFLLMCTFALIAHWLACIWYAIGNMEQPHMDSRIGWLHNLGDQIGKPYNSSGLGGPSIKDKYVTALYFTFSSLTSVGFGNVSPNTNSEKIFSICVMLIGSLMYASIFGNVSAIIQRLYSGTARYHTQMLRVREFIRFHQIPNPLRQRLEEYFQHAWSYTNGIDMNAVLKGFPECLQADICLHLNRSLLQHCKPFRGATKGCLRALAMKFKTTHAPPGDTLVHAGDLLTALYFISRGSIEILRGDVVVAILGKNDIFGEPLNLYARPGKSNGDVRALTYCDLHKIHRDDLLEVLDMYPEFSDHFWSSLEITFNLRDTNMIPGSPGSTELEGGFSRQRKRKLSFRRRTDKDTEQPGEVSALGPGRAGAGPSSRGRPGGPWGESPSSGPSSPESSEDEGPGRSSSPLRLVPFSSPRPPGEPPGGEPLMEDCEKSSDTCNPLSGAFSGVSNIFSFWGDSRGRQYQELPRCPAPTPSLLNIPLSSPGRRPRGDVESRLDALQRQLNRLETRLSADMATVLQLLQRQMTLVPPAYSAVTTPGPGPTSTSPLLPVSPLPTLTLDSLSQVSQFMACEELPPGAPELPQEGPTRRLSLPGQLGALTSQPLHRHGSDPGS

[8] = test system: Rattus norvegicus; experiment: Acute effect on parathyroid hormone in overnight fasted adenine diet-induced chronic kidney disease Wistar rat model assessed as reduction in plasma PTH level at 3 mg/kg, po measured after 4 hrs of post treatment by sandwich ELISA analysis; type: functional; design: scale not given: the % may be the effect or the level left
[9] = Drug excretion in BALB/c mouse assessed as drug recovery in feces at 10 mg/kg, po; type: ADME, organism-based; details: faeces, read-out: Drug recovery
[10] = test system: Rattus norvegicus; experiment: Acute effect on parathyroid hormone in overnight fasted adenine diet-induced chronic kidney disease Wistar rat model assessed as reduction in plasma PTH level at 10 mg/kg, po measured after 4 hrs of post treatment by sandwich ELISA analysis; type: functional; design: scale not given: the % may be the effect or the level left
[11] = Tmax in BALB/c mouse at 10 mg/kg, po measured upto 24 hrs by LC/MS-MS analysis; type: ADME, organism-based; details: in vivo
[12] = AUC(0 to 24 hrs) in Sprague-Dawley rat at 30 mg/kg; type: ADME, organism-based; design: dose 30 mg/kg; details: in vivo
[13] = Tmax in Sprague-Dawley rat at 1 mg/kg, iv measured upto 24 hrs by LC-MS/MS analysis; type: ADME, organism-based; details: in vivo
[14] = Oral bioavailability in Beagle dog at 5 mg/kg measured upto 24 hrs by LC/MS-MS analysis; type: ADME, organism-based, Canis lupus familiaris; details: in vivo
[15] = target: T1, Cytochrome P450 2B6 (Homo sapiens, UniProt P20813); experiment: Inhibition of CYP2B6 in human liver microsomes preincubated for 5 mins followed by NADPH addition by LC-MS/MS analysis; type: ADME, Microsome
T1 sequence (P20813 whole entry): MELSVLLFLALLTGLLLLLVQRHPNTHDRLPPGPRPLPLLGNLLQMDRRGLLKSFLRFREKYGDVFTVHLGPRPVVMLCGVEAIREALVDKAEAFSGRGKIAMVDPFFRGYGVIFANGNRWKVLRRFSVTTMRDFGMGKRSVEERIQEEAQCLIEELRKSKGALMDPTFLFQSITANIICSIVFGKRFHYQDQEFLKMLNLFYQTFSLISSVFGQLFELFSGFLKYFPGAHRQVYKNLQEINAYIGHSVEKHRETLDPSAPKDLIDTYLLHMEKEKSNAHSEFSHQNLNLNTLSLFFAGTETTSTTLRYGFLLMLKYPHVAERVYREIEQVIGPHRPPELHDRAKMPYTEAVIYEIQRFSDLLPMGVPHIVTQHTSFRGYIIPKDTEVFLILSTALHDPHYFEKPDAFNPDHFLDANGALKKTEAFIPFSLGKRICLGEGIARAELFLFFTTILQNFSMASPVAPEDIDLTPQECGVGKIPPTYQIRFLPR

[16] = Tmax in Sprague-Dawley rat at 10 mg/kg, po administered as suspension measured upto 24 hrs by LC-MS/MS analysis; type: ADME, organism-based; details: in vivo
[17] = Toxicity in rat assessed as maximum tolerated dose; details: in vivo
[18] = Chemical stability of the compound in 0.1N HCL measured after 0.5 to 4 hrs; type: physicochemical; details: buffer; time 0.5-4 hrs
[19] = Tmax in Sprague-Dawley rat at 300 mg/kg; type: ADME, organism-based; details: in vivo
[20] = Kinetic solubility of compound in SGF upto 500 uM measured after 16 hrs under shaking condition by UV-visible method; type: physicochemical; details: read-out: Kinetic_solubility
[21] = target: Delta-type opioid receptor (Homo sapiens) (UniProt P41143); experiment: Inhibition of human recombinant DOP receptor at 10 uM relative to control
Delta-type opioid receptor (Homo sapiens), sequence (P41143 whole entry): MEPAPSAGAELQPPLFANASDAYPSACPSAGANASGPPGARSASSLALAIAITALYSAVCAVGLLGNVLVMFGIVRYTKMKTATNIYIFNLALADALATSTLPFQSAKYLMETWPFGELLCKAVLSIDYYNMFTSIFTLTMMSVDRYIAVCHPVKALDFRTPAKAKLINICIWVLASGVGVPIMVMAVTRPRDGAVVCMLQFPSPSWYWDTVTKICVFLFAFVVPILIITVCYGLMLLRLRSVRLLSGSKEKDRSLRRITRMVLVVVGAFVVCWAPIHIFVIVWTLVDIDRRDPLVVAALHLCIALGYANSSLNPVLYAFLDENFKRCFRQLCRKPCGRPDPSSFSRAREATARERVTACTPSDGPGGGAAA

[22] = AUC(0 to t) in rat at 50 mg/kg per day, po via gavage administered for 2 weeks; type: ADME, organism-based; design: dose 50 mg/kg, time 2 weeks, route po; details: in vivo
[23] = Clearance in Sprague-Dawley rat at 10 mg/kg, po administered as solution measured upto 24 hrs by LC-MS/MS analysis; type: ADME, organism-based; details: in vivo
[24] = Drug excretion in BALB/c mouse assessed as drug recovery in urine at 10 mg/kg, po; type: ADME, organism-based; details: read-out: Drug recovery
[25] = Chemical stability of the compound at pH 7.4 measured after 0.5 to 4 hrs; type: physicochemical; details: buffer, time 0.5-4 hrs
[26] = Microsomal stability in rat liver microsomes assessed as parent compound remaining at 1 uM measured upto 30 mins in presence of NADPH by LC-MS/MS analysis; type: ADME, Microsome; details: read-out: Stability
[27] = Volume of distribution at steady state in BALB/c mouse at 1 mg/kg, iv measured upto 24 hrs by LC/MS-MS analysis; type: ADME, organism-based; details: in vivo, read-out: Vdss
[28] = AUC(0 to t) in human at 25 mg/kg, po administered as single dose; type: ADME, organism-based; design: dose 25 mg/kg, route po; details: in vivo
[29] = target: Mu-type opioid receptor (Homo sapiens) (UniProt P35372); experiment: Inhibition of human recombinant MOP receptor at 10 uM relative to control
Mu-type opioid receptor (Homo sapiens), sequence (P35372 whole entry): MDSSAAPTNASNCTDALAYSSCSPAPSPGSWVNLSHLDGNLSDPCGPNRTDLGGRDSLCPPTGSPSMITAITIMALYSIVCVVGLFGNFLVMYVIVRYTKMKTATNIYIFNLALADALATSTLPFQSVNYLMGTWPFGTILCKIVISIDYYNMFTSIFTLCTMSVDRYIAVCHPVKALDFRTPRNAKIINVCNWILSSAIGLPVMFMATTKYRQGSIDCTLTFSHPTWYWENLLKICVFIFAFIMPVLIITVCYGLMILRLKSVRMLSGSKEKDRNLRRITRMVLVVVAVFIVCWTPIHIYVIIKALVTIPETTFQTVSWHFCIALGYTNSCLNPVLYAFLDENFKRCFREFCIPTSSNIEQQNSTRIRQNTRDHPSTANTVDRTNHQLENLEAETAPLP

[30] = Stability in mouse plasma measured up to 4 hrs by LC-MS/MS method; type: ADME, cell-free; details: read-out: Stability
[31] = Metabolic stability in mouse liver S9 fraction measured upto 60 mins by LC-MS/MS method; type: ADME, subcellular; details: read-out: Stability
[32] = Kinetic solubility of compound in 0.1N HCL upto 500 uM measured after 16 hrs under shaking condition by UV-visible method; type: physicochemical; details: read-out: Kinetic_solubility
[33] = Stability in human plasma measured up to 4 hrs by LC-MS/MS method; type: ADME, cell-free; details: read-out: Stability
[34] = Half life in Beagle dog at 1 mg/kg, iv measured upto 24 hrs by LC/MS-MS analysis; type: ADME, organism-based, Canis lupus familiaris; details: in vivo
[35] = Chemical stability of the compound at pH 2 measured after 0.5 to 4 hrs; type: physicochemical; details: buffer, time 0.5-4 hrs
[36] = Drug excretion in BALB/c mouse assessed as drug recovery in urine at 1 mg/kg, iv; type: ADME, organism-based; details: read-out: Drug recovery
[37] = Ratio of drug concentration in blood to thyroid in Sprague-Dawley rat at 10 mg/kg, po measured upto 24 hrs by LC-MS/MS analysis; type: ADME, organism-based; details: in vivo
[38] = Apparent permeability across basolateral to apical side in human Caco-2 cells at 5 uM measured after 30 to 120 mins by LC-MS/MS analysis; type: ADME, cell-based; details: time 30-120 min
[39] = Tmax in Sprague-Dawley rat at 10 mg/kg; type: ADME, organism-based; details: in vivo
[40] = Oral bioavailability in Sprague-Dawley rat at 10 mg/kg administered as solution measured upto 24 hrs by LC-MS/MS analysis; type: ADME, organism-based; details: in vivo
[41] = Drug excretion in rat assessed as drug recovery in feces at 10 mg/kg, po; type: ADME, organism-based; details: faeces, read-out: Drug recovery

Cc1ccc([C@@H]2C[C@H](CN[C@H](C)c3cccc4ccccc34)Oc3ccccc32)cc1C(=O)O.Cl
Cmax [1]: 2000 nM
solubility kinetic at 16 h, 500 µM [2]: > 300 µM
Stability [3]: Stable
efflux ratio at 2 h, 5 µM [4]: 0.3
Tmax [5]: 1 h
AUC at 2184 h [6]: 321 µg·h/mL
inhibition at 10 µM [7]: 4%
Activity [8]: 89%
dose excreted [9]: 23%
Activity [10]: 97%
Tmax [11]: 0.25 h
AUC(0-t) [12]: 116 µM·h
Tmax [13]: 4.8 min
bioavailability [14]: 79%
IC50 [15]: 64 µM
Tmax [16]: 1 h
MTD [17]: 1000 mg/kg
Stability [18]: Stable
Tmax [19]: 1 h
solubility kinetic at 16 h, 500 µM [20]: > 200 µM
inhibition [21]: > 50%
AUC(0-t) at 336 h [22]: 108 µg·h/mL
CL/F [23]: 6 mL/min/kg
dose excreted [24]: < 1%
Stability [25]: Stable
remaining at 0.5 h, 1 µM [26]: 77%
Vd [27]: 0.6 L/kg
AUC(0-t) [28]: 2.93 µg·h/mL
inhibition [29]: > 50%
remaining at 4 h [30]: > 80%
remaining at 1 h [31]: > 80%
solubility kinetic at 16 h, 500 µM [32]: > 200 µM
remaining at 4 h [33]: > 80%
half-life [34]: 5 h
Stability [35]: Stable
dose excreted [36]: < 1%
Ratio [37]: 0.3
Papp B→A at 5 µM [38]: 6.3 ×10⁻⁶ cm/s
Tmax [39]: 1 h
bioavailability [40]: 99%
dose excreted [41]: 3%
